The target in assay [1] is T1, human STING protein (140-379) (Homo sapiens, UniProt Q86WV6, H232R).
T1 construct: 6XHIS-SUMO-hSTING (140-379); made in house; host or cells: BL-21(DE3) E. coli, pET vector
Briefly: Radiometric filtration binding competition assay (WT_FBA_HIS-SUMO-hSWAT). The settings on record: read-out: WT-hSWAT IC50. An outline of the steps: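 His-SUMO-tagged STING ligand-binding domain (human 140-379 or mouse 139-328, 0.5 μM) preincubated 30 min with compound (8 points, 2-fold from 300 μM), then competed with a tritiated ligand. Complexes were filtered and counted by scintillation. IC50 from non-linear regression, with Ki extrapolated.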

In another assay the target is T2, hSTING-R232 (Homo sapiens, UniProt Q86WV6, H232R).
T2 construct: recombinant mouse or human STING protein (aa140-379); 6xHis-SUMO elsewhere) (cleaved yes); made in house
T2 sequence (Q86WV6 140-379 H232R): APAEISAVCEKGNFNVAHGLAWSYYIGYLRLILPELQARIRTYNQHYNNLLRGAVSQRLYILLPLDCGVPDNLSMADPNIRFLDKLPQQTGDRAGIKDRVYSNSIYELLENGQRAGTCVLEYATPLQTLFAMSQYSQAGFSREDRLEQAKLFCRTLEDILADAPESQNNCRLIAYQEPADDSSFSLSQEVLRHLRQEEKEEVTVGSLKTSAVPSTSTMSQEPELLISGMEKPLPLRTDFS
The assay can be described thus: STING Differential Scanning Fluorimetry (DSF) assay, human. The assay is classed as binding. The settings on record: human STING R232-WT, 5 μM protein. An outline of the steps: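 Purified STING C-terminal domain (aa140-379, R232), human or mouse, at 5 μM in 100 mM NaCl, 30 mM HEPES pH 7.5 with SYBR Orange, was heated at 0.5° C./min. Tm came from dF/dT; ΔTm and FC50 were derived from an 11-point 2-fold series from 300 μM, in duplicate.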

Another assay deals with T3, STING protein (Homo sapiens, UniProt Q86WV6, H232R).
T3 construct: host or cells: THP-1 dual reporter cells, TMEM173 modified from HAQ to R232 (THP1-dual-KI R232)
T3 sequence (Q86WV6 whole entry H232R): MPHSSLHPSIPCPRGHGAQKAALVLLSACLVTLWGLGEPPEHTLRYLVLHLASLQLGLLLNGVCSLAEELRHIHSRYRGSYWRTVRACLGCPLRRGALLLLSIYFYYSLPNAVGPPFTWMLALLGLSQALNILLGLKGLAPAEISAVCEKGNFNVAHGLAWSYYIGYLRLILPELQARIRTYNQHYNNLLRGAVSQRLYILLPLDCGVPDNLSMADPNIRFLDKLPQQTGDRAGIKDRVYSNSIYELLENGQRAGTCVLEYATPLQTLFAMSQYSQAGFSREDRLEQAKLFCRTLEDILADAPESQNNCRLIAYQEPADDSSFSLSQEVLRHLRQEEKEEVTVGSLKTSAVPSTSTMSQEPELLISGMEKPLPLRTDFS
The assay can be described thus: Cell based reporter assay of IRF activation (THP1-dual-KI R232, IRF luciferase). The settings on record: THP-1; read-out: THP1-dual-KI R232_IRF(Luciferase)_Activity Maximum measured (%). An outline of the steps: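 THP-1 monocytes stably carried an ISG54/5×ISRE firefly luciferase IRF reporter, with TMEM173 knock-in H71R A230G Q293R (R232 variant), and there was no PMA pre-activation. Compounds were tested at 8 points, 2-fold, in duplicate from 150 µM. Cell Titer Glo was applied after supernatant removal.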

Data on 18 compounds can be found in US20220251079A1, “BENZO[B][1,8]NAPHTHYRIDINE ACETIC ACID DERIVATIVES AND METHODS OF USE” (STINGTHERA, INC., priority 2019, published 2022).

T1 sequence (Q86WV6 140-379 H232R): as the sequence (Q86WV6 140-379 H232R) above

As to `CCOc1c(Cl)ccc2c(=O)c3ccc(N(CCOC)CC(F)F)nc3n(CC(=O)O)c12` [Compound 52, sodium 2-(8-chloro-2-((2,2-difluoroethyl)(2-methoxyethyl)amino)-9-ethoxy-5-oxobenzo[b][1,8]naphthyridin-10(5H)-yl)acetate], the IC50 in assay [1] is 100 to 300 µM. The “WT_DSF_hSWAT Tm Shift (° C.)” value on hSTING-R232 was “C (“C” = 2-7° C.)”. In addition, on STING protein, the Emax is more than 50%.

Regarding `CN(C)c1c(Cl)ccc2c(=O)c3ccc(NCC4CC(F)(F)C4)nc3n(CC(=O)O)c12` [Compound 53, Sodium 2-(8-chloro-2-(((3,3-difluorocyclobutyl)methyl)amino)-9-(dimethylamino)-5-oxobenzo[b][1,8]naphthyridin-10(5H)-yl)acetate], the IC50 in assay [1] is less than 20 µM. The “WT_DSF_hSWAT Tm Shift (° C.)” value on hSTING-R232 is recorded as “D (“D” > 7° C.)”. Also, on STING protein, the Emax was more than 50%.

For the compound `CSc1c(Cl)ccc2c(=O)c3ccc(NCC4CC(F)(F)C4)nc3n(CC(=O)O)c12` [Compound 54, Sodium 2-(8-chloro-2-(((3,3-difluorocyclobutyl)methyl)amino)-9-(methylthio)-5-oxobenzo[b][1,8]naphthyridin-10(5H)-yl)acetate], the IC50 in assay [1] was in the range of 20 to 100 µM. Further, the “WT_DSF_hSWAT Tm Shift (° C.)” value at hSTING-R232 is “D (“D” > 7° C.)”. For the same compound, the Emax on STING protein is more than 50%.

As to `CSc1c(Cl)ccc2c(=O)c3ccc(NCC4COC4)nc3n(CC(=O)O)c12` [Compound 55, sodium 2-(8-chloro-9-(methylthio)-2-((oxetan-3-ylmethyl)amino)-5-oxobenzo[b][1,8]naphthyridin-10(5H)-yl)acetate], the IC50 in assay [1] was 20 to 100 µM. The “WT_DSF_hSWAT Tm Shift (° C.)” value at hSTING-R232 is given as “D (“D” > 7° C.)”. The Emax on STING protein was more than 50%.

With `CSc1c(Cl)ccc2c(=O)c3ccc(NC4CC(C#N)C4)nc3n(CC(=O)O)c12` (stereo not drawn) [Compound 56, sodium 2-(8-chloro-2-((3-cyanocyclobutyl)amino)-9-(methylthio)-5-oxobenzo[b][1,8]naphthyridin-10(5H)-yl)acetate], the IC50 in assay [1] was less than 20 µM. In addition, the “WT_DSF_hSWAT Tm Shift (° C.)” value at hSTING-R232 is reported as “D (“D” > 7° C.)”. Besides, the Emax at STING protein was more than 50%.

Turning to `CSc1c(Cl)ccc2c(=O)c3ccc(Nc4ccccc4F)nc3n(CC(=O)O)c12` [Compound 57, sodium 2-(8-chloro-2-((2-fluorophenyl)amino)-9-(methylthio)-5-oxobenzo[b][1,8]naphthyridin-10(5H)-yl)acetate], the IC50 in assay [1] is less than 20 µM. Moreover, the “WT_DSF_hSWAT Tm Shift (° C.)” value at hSTING-R232 was “D (“D” > 7° C.)”. For the same compound, the Emax on STING protein is more than 50%.

Take `CSc1c(Cl)ccc2c(=O)c3cc(Cl)c(N(C)C)nc3n(CC(=O)O)c12` [Compound 58, sodium 2-(3,8-dichloro-2-(dimethylamino)-9-(methylthio)-5-oxobenzo[b][1,8]naphthyridin-10(5H)-yl)acetate]: the IC50 in assay [1] was less than 20 µM. Moreover, at hSTING-R232, the “WT_DSF_hSWAT Tm Shift (° C.)” value is “D (“D” > 7° C.)”. Moreover, the Emax at STING protein is more than 50%.

`CCN(CCOC)c1nc2c(cc1Cl)c(=O)c1ccc(Cl)c(SC)c1n2CC(=O)O` [Compound 59, sodium 2-(3,8-dichloro-2-(ethyl(2-methoxyethyl)amino)-9-(methylthio)-5-oxobenzo[b][1,8]naphthyridin-10(5H)-yl)acetate]: in assay [1], the IC50 was 20 to 100 µM. Moreover, the “WT_DSF_hSWAT Tm Shift (° C.)” value on hSTING-R232 is recorded as “D (“D” > 7° C.)”. Further, the Emax on STING protein is more than 50%.

As for `CCOc1c(Cl)ccc2c(=O)c3ccc(NCC4CCOCC4)nc3n(CC(=O)O)c12` [Compound 60, sodium 2-(8-chloro-9-ethoxy-5-oxo-2-(((tetrahydro-2H-pyran-4-yl)methyl)amino)benzo[b][1,8]naphthyridin-10(5H)-yl)acetate], in assay [1], the IC50 was 20 to 100 µM. Further, the “WT_DSF_hSWAT Tm Shift (° C.)” value on hSTING-R232 was “D (“D” > 7° C.)”. On STING protein, the Emax was more than 50%.

For `Cc1ccc2c(=O)c3ccc(N(C)C)nc3n(CC(=O)O)c2c1N(C)C` [Compound 61, sodium 2-(2,9-bis(dimethylamino)-8-methyl-5-oxobenzo[b][1,8]naphthyridin-10(5H)-yl)acetate], in assay [1], the IC50 fell in the range of 20 to 100 µM. In addition, the “WT_DSF_hSWAT Tm Shift (° C.)” value at hSTING-R232 is listed as “D (“D” > 7° C.)”. For the same compound, the Emax at STING protein is more than 50%.

Regarding `CSc1c(C)ccc2c(=O)c3ccc(N(C)C)nc3n(CC(=O)O)c12` [Compound 62, sodium 2-(2-(dimethylamino)-8-methyl-9-(methylthio)-5-oxobenzo[b][1,8]naphthyridin-10(5H)-yl)acetate], in assay [1], the IC50 is 20 to 100 µM. In addition, the “WT_DSF_hSWAT Tm Shift (° C.)” value on hSTING-R232 was “D (“D” > 7° C.)”. Further, at STING protein, the Emax was more than 50%.

With `CSc1c(C)ccc2c(=O)c3ccc(C(C)(C)C)nc3n(CC(=O)O)c12` [Compound 63, sodium 2-(2-(tert-butyl)-8-methyl-9-(methylthio)-5-oxobenzo[b][1,8]naphthyridin-10(5H)-yl)acetate], in assay [1], the IC50 lay within 20 to 100 µM. Further, the “WT_DSF_hSWAT Tm Shift (° C.)” value on hSTING-R232 is listed as “D (“D” > 7° C.)”. Moreover, the Emax on STING protein is more than 50%.

For `Cc1ccc2c(=O)c3ccc(C(C)(C)C#N)nc3n(CC(=O)O)c2c1N(C)C` [Compound 64, sodium 2-(2-(2-cyanopropan-2-yl)-9-(dimethylamino)-8-methyl-5-oxobenzo[b][1,8]naphthyridin-10(5H)-yl)acetate], in assay [1], the IC50 lay within 20 to 100 µM. Moreover, the “WT_DSF_hSWAT Tm Shift (° C.)” value at hSTING-R232 is listed as “D (“D” > 7° C.)”. Moreover, the Emax at STING protein is more than 50%.

On to `CSc1c(Cl)ccc2c(=O)c3ccc(C=C4COC4)nc3n(CC(=O)O)c12` [Compound 65, 2-(8-chloro-9-(methylthio)-2-(oxetan-3-ylidenemethyl)-5-oxobenzo[b][1,8]naphthyridin-10(5H)-yl)acetic acid], for which the IC50 in assay [1] was 20 to 100 µM. On hSTING-R232, the “WT_DSF_hSWAT Tm Shift (° C.)” value is “D (“D” > 7° C.)”. Besides, the Emax on STING protein is more than 50%.

With `CO[C@H]1C[C@@H](N(C)c2ccc3c(=O)c4ccc(C)c(N(C)C)c4n(CC(=O)O)c3n2)C1` [Compound 67, 2-(9-(dimethylamino)-2-(((1s,3s)-3-methoxycyclobutyl)(methyl)amino)-8-methyl-5-oxobenzo[b][1,8]naphthyridin-10(5H)-yl)acetic acid], the IC50 in assay [1] is less than 20 µM. In addition, at hSTING-R232, the “WT_DSF_hSWAT Tm Shift (° C.)” value is “D (“D” > 7° C.)”. Moreover, the Emax on STING protein is more than 50%.

Consider `CSc1c(Cl)ccc2c(=O)c3ccc(C4(C)CC4)nc3n(CC(=O)O)c12` [Compound 68, sodium 2-(8-chloro-2-(1-methylcyclopropyl)-9-(methylthio)-5-oxobenzo[b][1,8]naphthyridin-10(5H)-yl)acetate], for which, in assay [1], the IC50 was less than 20 µM. In addition, the “WT_DSF_hSWAT Tm Shift (° C.)” value on hSTING-R232 is listed as “D (“D” > 7° C.)”. For the same compound, the Emax at STING protein was more than 50%.

For the compound `CO[C@H]1C[C@@H](N(C)c2ccc3c(=O)c4ccc(C)c(SC)c4n(CC(=O)O)c3n2)C1` [Compound 69, 2-(2-(((1s,3s)-3-methoxycyclobutyl)(methyl)amino)-8-methyl-9-(methylthio)-5-oxobenzo[b][1,8]naphthyridin-10(5H)-yl)acetic acid], the 50% inhibitory concentration (IC50) in assay [1] was less than 20 µM. Moreover, the “WT_DSF_hSWAT Tm Shift (° C.)” value on hSTING-R232 is listed as “D (“D” > 7° C.)”. Also, the Emax at STING protein is more than 50%.

As to `CSc1c(Cl)ccc2c(=O)c3ccc(N(C)CCn4ccnc4)nc3n(CC(=O)O)c12` [Compound 71, Sodium 2-(8-chloro-2-{[2-(imidazole-1-yl)ethyl](methyl)amino}-9-(methylsulfanyl)-5-oxobenzo[b]1,8-naphthyridin-10-yl)acetate], in assay [1], the IC50 is 20 to 100 µM. The “WT_DSF_hSWAT Tm Shift (° C.)” value on hSTING-R232 is given as “D (“D” > 7° C.)”. The Emax at STING protein lay within 5 to 25%.
